Where a SMILES comes first, the peptide text is derived from it. [ ]: non-standard residue; d: D form. The star is where a group is joined. ξ: configuration not given here. NOTA = O=C(O)CN1CCN(CC(=O)O)CCN(CC(=O)*)CC1; Oic = O=C(O)[C@@H]1C[C@@H]2CCCC[C@@H]2N1; d2Nal = N[C@H](Cc1ccc2ccccc2c1)C(=O)O; αMeF = C[C@](N)(Cc1ccccc1)C(=O)O; ξαMeF = CC(N)(Cc1ccccc1)C(=O)O; Orn = NCCC[C@H](N)C(=O)O; βAla = NCCC(=O)O
Experiments:
human B1R = molecular target: T1, human B1R (Homo sapiens, UniProt P46663); experiment: human bioassay using isolated human umbilical veins, B1R; assay type: cell-based; settings: versus the βAla-linked compound
T1 construct: It particularly expresses both kinin B1R and B2R at physiological densities; from tissue; host or cells: isolated human umbilical vein
T1 sequence (P46663 1-353): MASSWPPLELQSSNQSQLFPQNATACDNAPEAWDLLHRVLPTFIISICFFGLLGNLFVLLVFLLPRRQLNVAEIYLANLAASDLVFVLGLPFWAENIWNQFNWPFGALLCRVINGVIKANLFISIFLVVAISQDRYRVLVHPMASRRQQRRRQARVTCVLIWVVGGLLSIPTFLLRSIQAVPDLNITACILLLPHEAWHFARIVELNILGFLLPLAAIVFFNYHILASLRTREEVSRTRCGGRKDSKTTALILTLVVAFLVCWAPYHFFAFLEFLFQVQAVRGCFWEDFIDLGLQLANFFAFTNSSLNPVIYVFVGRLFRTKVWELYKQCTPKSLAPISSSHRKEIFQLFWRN
From the text: The apparent affinity constants (or potency) of kinin agonist and antagonist analogues for human B1R were estimated by in vitro human bioassay using isolated human umbilical veins (Gobeil et al., 1996, supra; Côté et al., 2009, supra). […] It particularly expresses both kinin B1R and B2R at physiological densities. Apparent affinities of peptides were defined in terms of EC50 (pD2) values for agonists and IC50 values for antagonists.

cancer cells = experiment: cytotoxicity of B1R radionuclide therapy by clonogenic assays; assay type: cell-based; settings: non-radioactive surrogate up to 10 μM
Procedure: Cytotoxicity of B1R radionuclide therapy was assessed in cancer cells by clonogenic assays. […] Then, media were removed and colonies fixed/stained with 0.5% methylene blue in 50% ethanol, rinsed with tap water and air dried. Colony counting was performed manually or automatically using the Image Pro Plus 5.1.

F98 GBM [1] = experiment: small animal PET imaging, Fischer/F98 malignant glioma model; assay type: in vivo, rat; settings: intravenous, F98 GBM-bearing rats
Procedure: The F98 GBM cell line (#CRL-2397) was purchased from American Type Culture Collection (ATCC). Cells were cultured as monolayers in Dulbecco's modified Eagle medium (DMEM) supplemented with 10% fetal bovine serum (FBS) and 1% penicillin-streptomycin mixture at 37° C. in a humidified 5% CO2/95% air incubator. The procedure of F98 glioma cell implantation was similar to that used in our previous studies (Côté et al., 2010, Neuropeptides, 44:177-185). […] All tumor transplantations were successful as determined by histology and/or MRI.
PET scans were performed using a LabPET8 (Gamma Medica Inc.) small animal scanner with an axial field of view of 8 cm. […] PET scans were assessed 1 h and 20 h post-injections. […] Regions of interest were traced for tumor, normal brain, heart, liver, kidney, and muscle, and the activity in each organ was measured and reported to the injected dose for percentages calculation. […] In vivo testing of the novel kinin PET radiotracers was also assessed in a model of tumor metastasis induced by the intracardiac injection of 4T1/luc (bioluminescent) mouse breast cancer cells under ultrasound guidance.

F98 GBM [2] = experiment: ex vivo biodistribution in F98 GBM-bearing rats; parameters: species or system rat
Procedure: Ex vivo biodistribution studies were performed by injecting 74 MBq (2 mCi/rat; 100 μL of ^64Cu-NOTA-βAla-Orn^1-Arg^2-Oic^3-Pro^4-Gly^5-(αMe)Phe^6-Ser^7-DβNal^8-Ile^9-OH (SEQ ID NO: 6) to isoflurane-anesthetized normal (non-implanted) or F98 bearing rats via the caudal vein. After 1 and 20 h post-injection, the animals were euthanized by CO2 inhalation. Organs of interest were further collected, weighed, and measured in a gamma-counter (Cobra II auto-gamma counter, Packard, Minn.). The results were expressed as percentage of the injected dose per gram of tissue (% ID/g). Specificity of brain tumor uptake of B1R radiotracers was determined by pre-administration of 1 mg/kg of R954 peptide (5 min prior the injection of the radiolabelled peptide) and using sham-operated contralaterals. Animals bearing B1R target knockdowns were also employed to further support specificity of brain tumor uptake. Experiments were realized with a minimum of 3 rats per group.

[3] = system: human solid tumors (e.g., brain and prostate) expressing naturally-occurring native B1R; experiment: PET imaging of solid tumors expressing native B1R (LN-CaP tumor-bearing nude mouse, F98); assay type: in vivo
Procedure: FIGS. 4A-C illustrate in vitro cell uptake and anticancer activity of ^64Cu-NOTA-βAla-Orn^1-Arg^2-Oic^3-Pro^4-Gly^5-(αMe)Phe^6-Ser^7-DβNal^8-Ile^9-OH; ^64Cu-NOTA-B1RA) (SEQ ID NO: 6) in human prostate cancer cells (PC3 and LN-CaP). Cell uptake of ^64Cu-Nota-B1RA (in the presence or not of competitor R954) in PC3 cells measured at 20 h post-treatment by radiometric assays (A). Dose-dependent antiproliferative effects of ^64Cu-acetate and ^64Cu/Nota-B1RA on PC3 cells (B) and LN-CaP cells (C), assessed by clonogenic assays. FIG. 4 D illustrates the molecular imaging of prostate cancer with ^64Cu/Nota-B1RA. PET images of LN-CaP tumor-bearing nude mouse obtained after injection of 64Cu/Nota-B1RA (9 MBq) at 0.5 h post-injection (p.i.). […] FIG. 4F confirms the immunohistochemical (IHC) overexpression of B1R in tumoral tissues of LNCaP-bearing mice (blackiste dark-color).
FIGS. 5A-C illustrate in vitro cellular/nuclear uptake and anticancer activity of ^64Cu-NOTA-βAla-Orn^1-Arg^2-Oic^3-Pro^4-Gly^5-(αMe)Phe^6-Ser^7-DβNal^8-Ile^9-OH (Cu/Nota-B1RA) (SEQ ID NO: 6) in F98 GBM cells. Cell uptake and nuclear localization of non-radioactive, free Cu and Cu/Nota-B1RA in F98 glioma cells measured at 20 h post-treatment by ICP-MS (A). Dose-dependent antiproliferative effects of ^64Cu-acetate, ^64Cu/Nota-B1RA on F98 wildtype (B) or shRNA-B1R knockdown F98 cells (C) using clonogenic assays. […]

[4] = rat
Procedure: For in vivo stability studies in normal healthy rats and mice, peptide was reconstituted in PBS and 20-30 MBq (500-800 μCi; 100 μL) were injected through the tail vein to isoflurane anesthetized animals. At different times post-injection, blood and urine were collected, centrifuged and followed by a protein precipitation with acetonitrile. Samples were analyzed by UPLC using a C-18 column and a radio-detector. Analysis and retention times were compared to the original radiolabeled peptide to monitor peptide cleavage.

[5] = system: brain tumor cells and other types of cancer cells (e.g., breast and prostate); experiment: cellular and nuclear uptake of Cu (ICP-MS / radiometric assays); assay type: cell-based
Procedure: Cellular uptake profiles of non-radioactive Cu-acetate and Cu-labeled peptides in B1R expressing rat F98 GBM cells were evaluated by ICP-MS analysis. Brain cancer cells were allowed to grow to confluence on a 10-cm dish. Cells were then incubated with Cu-acetate or Cu-labeled peptides (500 nM) in FBS free-DMEM at 37° C. for 15 min or 1, 4, or 20 h, respectively. For determination of nonspecific internalization, one set of dishes was incubated with the potent B1R antagonist R-954 (1 μM) at 37° C. for 10 min to block B1R prior to incubation with Cu-labeled peptides. At each time point, media was collected, and cells were acid-washed once (50 mM acetic acid/250 mM NaCl pH 2.5), to remove surface-bound fractions, and then washed twice with Phosphate-buffered saline (PBS, pH 7.4). Thereafter, cells were trypsinized, collected by centrifugation and gently washed with Hank's buffered salt solution (HBSS). Cells were solubilized in 1/1 nitric acid/30% H2O2 solution, and the amount of Cu was determined by ICP-MS. […]
Irradiating DNA is an effective way to injure and eventually kill cells. […] Pelleted cell-free nuclei were resuspended in 0.5 ml of hypotonic buffer, counted and finally solubilized in 1/1 nitric acid/30% H2O2 solution. […] Quantification of Cu content in the nuclear fractions was done by ICP-MS.

F98 GBM [6] = experiment: peptide receptor radionuclide therapy (PRRT), survival of F98 GBM-bearing rats; assay type: in vivo; settings: single intravenous treatment 7.5 mCi/rat, day 10 post-inoculation
4T1/luc metastases = experiment: PET and bioluminescence imaging, 4T1/luc mouse mammary tumor metastasis model; assay type: in vivo; settings: 4T1/luc mouse model
Procedure: PET scans were performed using a LabPET8 (Gamma Medica Inc.) small animal scanner with an axial field of view of 8 cm. F98 GBM bearing rats were injected with 74 MBq (2 mCi; 100 μL) of novel ^64Cu radiolabeled B1R peptides (agonist or antagonist) with via the caudal vein under isoflurane anesthesia. PET scans were assessed 1 h and 20 h post-injections. […] The images were reconstructed by a three dimensional MLEM algorithm implementing an analytically derived system matrix (Selivanov et al., 2000, Nuclear Science, IEEE Transactions on, 47: 1168-1175). Regions of interest were traced for tumor, normal brain, heart, liver, kidney, and muscle, and the activity in each organ was measured and reported to the injected dose for percentages calculation. […] In vivo testing of the novel kinin PET radiotracers was also assessed in a model of tumor metastasis induced by the intracardiac injection of 4T1/luc (bioluminescent) mouse breast cancer cells under ultrasound guidance.

With `CC[C@H](C)[C@H](NC(=O)[C@@H](Cc1ccc2ccccc2c1)NC(=O)[C@H](CO)NC(=O)C(C)(Cc1ccccc1)NC(=O)CNC(=O)[C@@H]1CCCN1C(=O)[C@@H]1C[C@@H]2CCCC[C@@H]2N1C(=O)[C@H](CCCNC(=N)N)NC(=O)[C@H](CCCN)NC(=O)CN1CCN(CC(=O)O)CCN(CC(=O)O)CC1)C(=O)O` (stereo partly shown) [Cu-NOTA-Orn^1-Arg^2-Oic^3-Pro^4-Gly^5-(αMe)Phe^6-Ser^7-DβNal^8-Ile^9-OH] ({NOTA}-[Orn]R[Oic]PG[ξαMeF]S[d2Nal]I-OH; N-terminus assumed) the “decrease in affinity to hB1R in absence of linker” value (human B1R) was 10 fold.
For `CC[C@H](C)[C@H](NC(=O)[C@@H](Cc1ccc2ccccc2c1)NC(=O)[C@H](CO)NC(=O)C(C)(Cc1ccccc1)NC(=O)CNC(=O)[C@@H]1CCCN1C(=O)[C@@H]1C[C@@H]2CCCC[C@@H]2N1C(=O)[C@H](CCCNC(=N)N)NC(=O)[C@H](CCCN)NC(=O)CCNC(=O)CN1CCN(CC(=O)O)CCN(CC(=O)O)CC1)C(=O)O` (stereo partly shown) [Cu-NOTA-βAla-Orn^1-Arg^2-Oic^3-Pro^4-Gly^5-(αMe)Phe^6-Ser^7-DβNal^8-Ile^9-OH] ({NOTA-βAla}-[Orn]R[Oic]PG[ξαMeF]S[d2Nal]I-OH; N-terminus assumed), the “anticancer activity / therapeutic efficacy” value (cancer cells) was “not seen”.
With `CC(=O)[O-].CC(=O)[O-].[64Cu+2]` [^64Cu-acetate, reference compound] the “anticancer activity / therapeutic efficacy” value (cancer cells) was “not seen”.
With “^64Cu-NOTA-βAla-DLys^1-Arg^2-Pro^3-Pro^4-Gly^5-Phe^6-Ser^7-Pro^8-DPhe^9-OH (AKRPPGFSPF; 64Cu-NOTA-betaAla N-terminal; D-Lys1, D-Phe9; SITE (1)...(1) beta-alanine; SITE (2)...(2) D-lysine; SITE (10)...(10) D-phenylalanine)” the “detection of brain tumors by μPET” value (F98 GBM [1]) was “properly detected relatively small brain tumors”.
With “^64Cu-NOTA-βAla-Orn^1-Arg^2-Oic^3-Pro^4-Gly^5-(αMe)Phe^6-Ser^7-DβNal^8-Ile^9-OH ({NOTA}-[βAla][Orn]R[Oic]PG[αMeF]S[d2Nal]I-OH; also: 64Cu complexed by NOTA)” the “brain tumor uptake, ex vivo biodistribution” value (F98 GBM [2]) was “significant amount of brain tumor uptake”, the “non-invasive detection of solid tumors” value [3] was “capacity to identify or detect non-invasively and rapidly human solid tumors” and the in vivo stability [4] was “no degradation sign”. For the same compound, the “elimination (pharmacokinetics)” value ([4]; in vivo) was “largely eliminated by the kidneys in urine as intact form”, the cellular localization [5] was “localize both in cytoplasmic and nuclear compartment” and the “survival with PRRT” value (F98 GBM [6]) was “tendency of prolonging survival”. The “anticancer activity / therapeutic efficacy” value (cancer cells) was “enhanced anticancer activity”, the “PET signal localization versus bioluminescent signals” value (4T1/luc metastases) was “colocalized with bioluminescent signals from (bone) metastases” and the “detection of brain tumors by μPET” value (F98 GBM [1]) was “properly detected relatively small brain tumors”.
